# In patent publication US20120136057A1, “HYDROXY FATTY ACID COMPOUNDS AND USES THEREOF FOR DISEASE TREATMENT AND DIAGNOSIS” (PHENOMENOME DISCOVERIES INC., priority 2009, published 2012):
# Experiments:
# Assay type in all cases: cell-based, mouse
# IL-1β = IL-1β protein by ELISA in LPS-stimulated RAW macrophage cells; details: RAW293 cells, 0.5 mM before LPS stimulation
# Procedure: ELISA for mouse IL-1 beta: Raw cells were treated as described in real time PCR. 50 ul of conditioned medium or 100 ug of cell lysate was used to determine the amount of IL-1 beta as per manufactory's instruction (Cat. No. MLB00B, Quantikine)
# (§1) The RAW293 mouse macrophage cell model system is commonly used to assess anti-inflammatory activity of compounds. The cells are treated with lipopolysaccharide which induces a massive inflammatory response, of which compounds can be tested for their ability to protect against. RAW293 cells were pretreated with hPULCFA-enriched extract followed by treatment with LPS for 24 hours after which mRNA transcript and protein levels of pro-inflammatory markers including the cytokines tumor necrosis factor alpha (TNFα) and interleukin-1 beta (IL-1β), iNOS as described above, cyclooxygenase 2 (COX2, the enzyme responsible for the production of pro-inflammatory eicosanoids from arachidonic acid) were assessed.
# TNFα = TNFα protein by ELISA in LPS-stimulated RAW macrophage cells; details: RAW293 cells, 0.5 mM before LPS stimulation
# Procedure: ELISA for mouse TNF alpha: Raw cells were treated as described in real time PCR. Conditioned medium was collected. Cells was briefly washed with ice cold PBS and lysed with lysis buffer (Jerry's recipe); Protein in the cell lysate was quantified using the Bio-Rad Protein Assay (Bio-Rad, Hercules, Calif.). 50 ul of conditioned medium or 100 ug of cell lysate per well was used to determine the amount of TNF alpha as per manufactory's instruction (Cat. No. KMC3011, Invitrogen).
# as §1
# TNFα mRNA transcript = experiment: TNFα mRNA by quantitative real-time PCR in LPS-stimulated RAW macrophage cells; details: RAW264.7 cells, 500 uM (0.5 mM) before LPS stimulation
# Procedure: Quantitative Real time PCR: RAW264.7 cells were seeded at 1×10^6/well in […] plate the day before the treatment. The following day, the cells were treated with different concentration of hPUCLFA(D046) or 1% FA/DMSO (DMSO) as vehicle control for 4 hours; each treatment was in duplicate; then stimulated with LPS at 1 μg/ml (cat. No. L4391, Sigma) for 20 hours. Total RNA was isolated from cell pellets using Trizol (Cat. No. 15596-018, Invitrogen) as per manufacturer's instruction. The RNA pellets were resuspended in 50 μL of DEPC treated water and stored at −80° C. RNA concentration and purity was determined by spectrophotometry at 260 and 280 nm. […]
# as §1, with “The cells are treated with lipopolysaccharide which induces a massive inflammatory response, of which compounds can be tested for their ability to protect against.” left out
structure (smiles),measurement,setting,value
CCCC(O)C/C=C\C(O)/C=C\C/C=C\C/C=C\C/C=C\CCCCCCCCC(=O)O (stereo not drawn) [Compound D046-124],levels of IL-1β in conditioned media,IL-1β,completely blocked
same,TNFα protein level in conditioned media,TNFα,prevented the induction
same,induction of TNFα transcripts,TNFα mRNA transcript,prevented the induction
